Source: patent EP0267996A1, “New nucleotide derivatives” (TAMIR BIOTECHNOLOGY LTD., priority 1986, dated 1988)

Experiments:
Format in all cases: binding
Details in all cases: for Cross-reaction (%): RIA, 100x/y, masses of testosterone and heterologous compound giving 50% inhibition of binding of the tritiated ligand
[1] = test system: Polyclonal Rat IgG to testosterone (from the rats used for the fusion experiments); assay: Dextran-coated charcoal radioimmunoassay (RIA): affinity and specificity of antibody
Method: Immunization: Wistar-derived female rats (2 to 3 months old) from the Departmental Colon y were immunized by an intradermal injection of testosterone-3-(O-carboxymethyl)-oxime bovine serum albumin conjugate (200 ug/rat) incorporated in complete Freund's adjuvant. A month later the injection was repeated, and booster injections (100 ug/rat) were given three weeks later. All animals were bled from the tail ten days after the booster injection, and the antisera were tested then for titer and specificity.
(§1) Characterization of antibodies: A dextran-coated charcoal radioimmunoassay method was used to detect specific antibodies to testosterone. Antibody titer denotes the dilution at which 50% of the labelled ligand, added at concentrations of 50 pg./ml., is bound as determined by radioimmunoassay. Cross reactivity (%) was calculated as proposed by Thorneycroft et al ("Immunologic Methods", Steroid Determination, Peron and Caldwell, eds., Appleton-Century-Crofts, New York 1970, pp. 63-86). as 100x/y where x is the mass of testosterone and y is the mass of heterologous compound required to produce 50% inhibition of the binding of the tritiated ligand. Affinity of the antibodies was calculated according to Abraham et al in Handbook of Radioimmunoassay, Marcel Dekker Inc., New York, 1977, pp. 591-656.

[2] = test system: monoclonal antibody to testosterone, clone H6 (rat spleen x mouse myeloma NSO/1 hybridoma; heavy chain class Y2a); assay: Dextran-coated charcoal radioimmunoassay (RIA): affinity and specificity of antibody in ascitic fluid
Method: as §1
(§2) After two weeks of growth, antibody-secreting hybridomas were detected by a RIA procedure in the tissue culture media of 30 out of the 147 cultures. During subsequent cell culture, 3 hybridoma lines that yielded high antibody titers were cloned by limiting dilutions and sub-cloned on semi-solid agar. When injected i.p. into pristane-trea ted irradiated F₁ mice or nude mice, the hybridomas grew as tumors and secreted high amounts of anti-testosterone antibodies into the ascitic fluid of these mice, with titers ranging from 1:10,000 to 1:60,000 (Table 1).
(§3) Characterization of monoclonal antibodies: The ascitic fluid of mice derived from three hybridomas. H₆, F₂ and D₁₁ was further characterized for affinity and specificity by a dextran-coated RIA procedure.

[3] = test system: monoclonal antibody to testosterone, clone F2 (rat spleen x mouse myeloma NSO/1 hybridoma; heavy chain class IgM); assay: as above
Method: as §1, §2, §3

[4] = test system: monoclonal antibody to testosterone, clone D11 (rat spleen x mouse myeloma NSO/1 hybridoma; heavy chain class Y2a); assay: as above
Method: as §1, §2, §3

[5] = calculated according to the method of Abraham et al

Structure (SMILES) | Cross-reaction (%) [1] | Cross-reaction (%) [2] | Cross-reaction (%) [3] | Cross-reaction (%) [4] | Ka [1, 5] | Ka [2, 5] | Ka [3, 5] | Ka [4, 5]
C[C@]12CCC(=O)C[C@@H]1CC[C@@H]1[C@@H]2CC[C@]2(C)[C@@H](O)CC[C@@H]12 [5-alpha-Dihydrotestosterone] | 10% | 100% | 2% | 100% | – | – | – | –
C[C@]12CCC(=O)C[C@H]1CC[C@@H]1[C@@H]2CC[C@]2(C)[C@@H](O)CC[C@@H]12 [5-beta-Dihydrotestosterone] | 2% | 0.5% | 15% | 8.5% | – | – | – | –
C[C@]12CC[C@H]3[C@@H](CCC4=CC(=O)CC[C@@]43C)[C@@H]1CC[C@@H]2O [Testosterone] | 100% | 100% | 100% | 100% | 3.7e+09 L/mol | 2.1e+10 L/mol | 1e+10 L/mol | 1.85e+10 L/mol
